Measurements reported in patent US11004539B2, “Predicting metabolic side effects of transported drugs” (The Regents of the University of California, priority 2016, dated 2021).
Where a name gives a salt, the structure may show the parent alone. Read-outs that look alike come from different tables or passages of the source. Each block holds one compound with its values, some of them ahead of it.

Assays:
OAT3 [1] = target: T1, OAT3 (Mus musculus, UniProt O88909); experiment: cell-based
T1 sequence (O88909 1-537): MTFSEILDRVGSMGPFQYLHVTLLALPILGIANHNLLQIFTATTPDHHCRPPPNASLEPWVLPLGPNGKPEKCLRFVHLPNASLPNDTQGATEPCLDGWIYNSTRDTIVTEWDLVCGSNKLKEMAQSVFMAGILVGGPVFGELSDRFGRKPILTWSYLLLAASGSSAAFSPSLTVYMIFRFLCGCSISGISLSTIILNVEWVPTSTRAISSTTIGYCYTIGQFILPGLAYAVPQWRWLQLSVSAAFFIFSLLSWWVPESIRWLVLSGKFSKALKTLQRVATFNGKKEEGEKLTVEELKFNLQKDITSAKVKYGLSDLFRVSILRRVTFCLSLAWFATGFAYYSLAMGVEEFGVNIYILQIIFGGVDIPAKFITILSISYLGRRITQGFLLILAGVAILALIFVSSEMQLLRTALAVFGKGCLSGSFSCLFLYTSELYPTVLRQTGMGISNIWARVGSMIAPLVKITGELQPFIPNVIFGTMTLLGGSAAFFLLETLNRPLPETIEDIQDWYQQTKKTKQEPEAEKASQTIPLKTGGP

OAT3 [2] = target: T1, OAT3; experiment: Plasma metabolomics profiling of Oat3KO versus wild-type mice; details: Oat3KO vs wild type mice
OAT1 [3] = target: T2, OAT1 (Mus musculus, UniProt Q8VC69); experiment: Uptake inhibition assay in Oat1-transfected CHO cells (6-carboxyfluorescein tracer); type: cell-based; set-up: expressed in transfected cells; host or cells: CHO cells; details: for Ki: read-out: calculated Ki; for interaction with OAT1 in in vitro assays: set of 8 predicted metabolites tested
T2 sequence (Q8VC69 1-545): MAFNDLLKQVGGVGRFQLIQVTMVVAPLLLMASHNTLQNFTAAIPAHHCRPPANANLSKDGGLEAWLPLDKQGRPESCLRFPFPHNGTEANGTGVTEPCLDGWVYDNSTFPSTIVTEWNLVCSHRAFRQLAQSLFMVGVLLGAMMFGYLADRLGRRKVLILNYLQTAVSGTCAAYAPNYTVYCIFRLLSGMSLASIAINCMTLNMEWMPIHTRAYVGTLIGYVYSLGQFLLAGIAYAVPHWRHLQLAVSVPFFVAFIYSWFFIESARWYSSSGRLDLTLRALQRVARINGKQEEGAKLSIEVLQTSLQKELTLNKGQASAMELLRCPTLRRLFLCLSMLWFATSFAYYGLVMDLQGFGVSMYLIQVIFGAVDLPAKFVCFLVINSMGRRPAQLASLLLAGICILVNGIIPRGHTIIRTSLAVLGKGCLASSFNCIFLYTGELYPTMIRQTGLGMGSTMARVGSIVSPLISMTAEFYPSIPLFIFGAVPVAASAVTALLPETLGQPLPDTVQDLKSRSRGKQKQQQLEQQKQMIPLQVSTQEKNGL
Protocol: (A) The IC50 curves for the metabolites characterized in the in vitro uptake inhibition assay using CHO stably expressing Oat1. […] (B) The table summarizes the calculated Ki and metabolic pathways the characterized metabolites were involved in.
Oat1-transfected CHO cells cultured on 96-well plates were incubated in the presence of 10 μM 6-carboxyfluorescein with or without individual metabolites (with controls treated with the OAT1 inhibitor probenecid). The IC50 curves for novel ligands were plotted in Prism Software (GraphPad Inc., San Diego, Calif.), and the IC50 values were converted to Ki (inhibition affinity) using the Cheng-Prusoff equation.

OAT1 [4] = target: T2, OAT1; experiment: cell-based
OAT1 [5] = target: T2, OAT1; details: OAT1 vs OAT3; cited from earlier work
OAT1 [6] = target: T2, OAT1; experiment: Uptake inhibition assay, CHO cells constitutively expressing mouse Oat1; details: 6-carboxyfluorescein as fluorescent tracer
OAT1 [7] = target: T2, OAT1
OAT3 [8] = target: T1, OAT3; details: OAT3-expressing cells; 5-carboxyfluorescein as fluorescent tracer
OAT3 [9] = target: T1, OAT3; details: in vivo
[10] = statistical significance not achieved

change in plasma of the Oat3KO (OAT3 [2]): accumulate in the plasma
Compound: NCCc1c[nH]c2ccc(O)cc12 [serotonin]

change in plasma of the Oat3KO (OAT3 [2]): significantly increased
Compound: C[C@H](CCC(=O)O)[C@H]1CC[C@H]2[C@@H]3[C@@H](O)C[C@@H]4C[C@H](O)CC[C@]4(C)[C@H]3CC[C@]12C [ursodeoxycholate]

Ki (OAT1 [3]): 93 µM
interaction with OAT1 in in vitro assays (OAT1 [3]): directly interacting with OAT1
Compound: Nc1nc2c(c(=O)[nH]1)N=C(CNc1ccc(C(=O)N[C@@H](CCC(=O)O)C(=O)O)cc1)CN2 [dihydrofolic acid]

increase in plasma of the Oat3KO (OAT3 [2]; did not reach statistical significance): ~30 fold
Compound: C[C@H](CCC(=O)NCCS(=O)(=O)O)[C@H]1CC[C@H]2[C@@H]3[C@H](O)C[C@@H]4C[C@H](O)CC[C@]4(C)[C@H]3CC[C@]12C [taurochenodeoxycholate]

change in plasma of the Oat3KO (OAT3 [2]): altered
Compound: O=C(O)CCCCCCCCCCCCC(=O)O [tetradecanedioate]

change in plasma of the Oat3KO (OAT3 [2]): significantly increased
Compound: O=S(=O)(O)Oc1ccccc1 [phenol sulfate]

change in plasma of the Oat3KO (OAT3 [2]; [10]): increased
Compound: C[C@H](CCC(=O)NCC(=O)O)[C@H]1CC[C@H]2[C@@H]3[C@H](O)C[C@@H]4C[C@H](O)CC[C@]4(C)[C@H]3C[C@H](O)[C@]12C [glycocholate]

change in plasma of the Oat3KO (OAT3 [2]): accumulate in the plasma
Compound: O=C(O)c1c[nH]c2ccccc12 [indole-3-carboxylic acid]

change in plasma of the Oat3KO (OAT3 [2]; [10]): increased over ten-fold
Compound: C[C@H](CCC(=O)NCCS(=O)(=O)O)[C@H]1CC[C@H]2[C@@H]3CC[C@@H]4C[C@H](O)CC[C@]4(C)[C@H]3C[C@H](O)[C@]12C [taurodeoxycholate]

change in plasma of the Oat3KO (OAT3 [2]): significantly increased
Compound: Cc1ccc(OS(=O)(=O)O)cc1 [p-cresol sulfate]

increase in plasma of the Oat3KO (OAT3 [2]; significantly altered): more than 7 fold
Compound: equol sulfate

increase in plasma of the Oat3KO (OAT3 [2]; significantly altered): ~160 fold
Compound: C[C@H](CCC(=O)O)[C@H]1CC[C@H]2[C@@H]3[C@H](O)C[C@@H]4C[C@H](O)CC[C@]4(C)[C@H]3C[C@H](O)[C@]12C [cholate]

increase in plasma of the Oat3KO (OAT3 [2]; significantly altered): more than 42 fold
Compound: equol glucuronide

change in plasma of the Oat3KO (OAT3 [9]): accumulate in the plasma
Compound: O=C(O)C(O)Cc1c[nH]c2ccccc12 (stereo not drawn) [indolelactate]

change in plasma of the Oat3KO (OAT3 [2]; [10]): increased over ten-fold
Compound: C[C@H](CCC(=O)NCCS(=O)(=O)O)[C@H]1CC[C@H]2[C@@H]3[C@@H](O)C[C@@H]4C[C@H](O)CC[C@]4(C)[C@H]3CC[C@]12C [tauroursodeoxycholate]

change in plasma of the Oat3KO (OAT3 [2]; [10]): increased over ten-fold
Compound: C[C@H](CCC(=O)NCCS(=O)(=O)[O-])[C@H]1CC[C@H]2[C@@H]3C[C@H](O)[C@@H]4C[C@H](O)CC[C@]4(C)[C@H]3CC[C@]12C.[Na+] [taurohyodeoxycholic acid]

change in plasma of the Oat3KO (OAT3 [2]; [10]): increased
Compound: C[C@H](CCC(=O)NCCS(=O)(=O)O)[C@H]1CC[C@H]2[C@@H]3[C@@H](O)[C@@H](O)[C@@H]4C[C@H](O)CC[C@]4(C)[C@H]3CC[C@]12C [tauro-beta-muricholate]

The next lines start with the compound.

Compound: CCCN(CCC)S(=O)(=O)c1ccc(C(=O)O)cc1 [Probenecid]
IC50 (OAT3 [1]): 33 µM

Compound: CCCCCCCCC(O)C(=O)O (stereo not drawn) [2-hydroxydecanoate]
change in plasma of the Oat3KO (OAT3 [2]): altered

Compound: O=S(=O)(O)Oc1c[nH]c2ccccc12 [3-indoxyl sulfate]
change in plasma of the Oat3KO (OAT3 [2]): accumulate in the plasma

Compound: C[C@H](CCC(=O)O)[C@H]1CC[C@H]2[C@@H]3[C@@H](O)[C@@H](O)[C@@H]4C[C@H](O)CC[C@]4(C)[C@H]3CC[C@]12C [beta-muricholate]
increase in plasma of the Oat3KO (OAT3 [2]; significantly altered): over 24 fold

Compound: Cc1ccc(O[C@@H]2O[C@H](C(=O)O)[C@@H](O)[C@H](O)[C@H]2O)cc1 [p-cresol-glucuronide]
change in plasma of the Oat3KO (OAT3 [2]): significantly increased

Compound: CCCCC[C@H](O)/C=C/[C@H]1[C@H](O)CC(=O)[C@@H]1CCCCCCC(=O)O [prostaglandin E1]
Ki (OAT1 [3]): 12 µM
interaction with OAT1 in in vitro assays (OAT1 [3]): directly interacting with OAT1

Compound: NC(=O)C(c1ccccc1)(c1ccccc1)[C@@H]1CCN(CCc2ccc3c(c2)CCO3)C1 [Darifenacin]
IC50 (OAT1 [4]): 807 µM
IC50 (OAT3 [1]): 198 µM

Compound: CC(=O)N[C@@H](CC(=O)c1ccccc1N)C(=O)O [N-acetylkynurenine]
change in plasma of the Oat3KO (OAT3 [2]): accumulate in the plasma

Compound: CN/C(=N/CCSCc1nc[nH]c1C)NC#N [cimetidine]
affinity for OAT1 compared to OAT3, fold less (OAT1 [5]): roughly 10 fold

Compound: O=C(O)CCCCCCCCCCCCCCCO [16-hydroxy-hexadecanoic acid]
Ki (OAT1 [3]): 13 µM
interaction with OAT1 in in vitro assays (OAT1 [3]): directly interacting with OAT1

Compound: CC(=O)N[C@@H](Cc1c[nH]c2ccccc12)C(=O)O [N-acetyltryptophan]
change in plasma of the Oat3KO (OAT3 [2]): accumulate in the plasma

Compound: CN(C)C(=O)C(CCN1CCC(O)(c2ccc(Cl)cc2)CC1)(c1ccccc1)c1ccccc1 [Loperamide]
IC50 (OAT3 [1]): 95 µM
IC50 OAT1 (OAT1 [6]): No significant

Compound: Cc1nc2n(c(=O)c1CCN1CCC(c3noc4cc(F)ccc34)CC1)CCCC2O (stereo not drawn) [Paliperidone]
IC50 (OAT1 [4]): 1080 µM
IC50 (OAT3 [1]): 260 µM

Compound: CCCC(O)CC(=O)O (stereo not drawn) [3-hydroxyhexanoate]
change in plasma of the Oat3KO (OAT3 [2]): altered

Compound: OC(CNCC(O)C1CCc2cc(F)ccc2O1)C1CCc2cc(F)ccc2O1 (stereo not drawn) [Nebivolol]
IC50 OAT1 (OAT1 [7]): No significant
IC50 (OAT3 [1]): 169 µM

Compound: C[C@H](CCC(=O)O)[C@H]1CC[C@H]2[C@@H]3C(=O)C[C@@H]4C[C@H](O)CC[C@]4(C)[C@H]3C[C@H](O)[C@]12C [7-ketodeoxycholate]
change in plasma of the Oat3KO (OAT3 [2]): significantly increased

Compound: CCCCCC/C=C\CCCCCCCC(=O)O [palmitoleic acid]
Ki (OAT1 [3]): 200 µM
interaction with OAT1 in in vitro assays (OAT1 [3]): directly interacting with OAT1

Compound: COc1cc(N)c(Cl)cc1C(=O)NC1CCN(CCCOc2ccc(F)cc2)CC1OC (stereo not drawn) [Cisapride]
IC50 OAT1 (OAT1 [7]): No inhibition
IC50 OAT3 (OAT3 [8]): No ihhibition

Compound: CCCCN(CCCC)CCC(O)c1cc2c(Cl)cc(Cl)cc2c2cc(C(F)(F)F)ccc12 (stereo not drawn) [Halofantrine]
IC50 OAT3 (OAT3 [8]): No inhibition
IC50 OAT1 (OAT1 [6]): No inhibition

Compound: O=C(O)CCCCCCCCC(=O)O [sebacate]
change in plasma of the Oat3KO (OAT3 [2]): altered

Compound: C[C@H](CCC(=O)O)[C@H]1CC[C@H]2[C@@H]3[C@H](O)C[C@@H]4C[C@H](O)CC[C@]4(C)[C@H]3CC[C@]12C [chenodeoxycholate]
change in plasma of the Oat3KO (OAT3 [2]; [10]): increased
